Measured values taken from ChEMBL document CHEMBL4052807 (Bioorg Med Chem Lett, 2017).
In brackets after ≈: the same amount, converted by molar mass.

Tests used:
Liver = assay: Intrinsic clearance in human liver microsomes; format: ADME, microsome
[1] = Half life in Swiss albino mouse at 1 mg/kg, iv or 2 mg/kg, po; format: ADME, organism-based; settings: in vivo
[2] = Blood clearance in Swiss albino mouse at 1 mg/kg, iv or 2 mg/kg, po; format: ADME, organism-based; settings: whole blood
[3] = Volume of distribution at steady state in Swiss albino mouse at 1 mg/kg, iv or 2 mg/kg, po; format: ADME, organism-based; settings: in vivo, read-out: Vdss
Mus musculus [4] = assay: Dose normalized AUC in Swiss albino mouse at 1 mg/kg, iv; format: ADME, organism-based; settings: in vivo
[5] = Oral bioavailability in Swiss albino mouse at 2 mg/kg; format: ADME, organism-based; settings: in vivo
[6] = Ratio of drug level in Swiss albino mouse brain to blood at 1 mg/kg, iv or 2 mg/kg, po; format: ADME, organism-based
[7] = Solubility of the compound; format: physicochemical
[8] = Passive permeability in MDCK cells expressing human MDR1; format: ADME, cell-based, Canis lupus familiaris; settings: dog, read-out: permeability
[9] = molecular target: T1, Leucine-rich repeat serine/threonine-protein kinase 2 (Homo sapiens, UniProt Q5S007); assay: Inhibition of human LRRK2 using RLGRDKYKTLRQIRQ as substrate at 1uM in presence of [gamma-33P]-ATP
SRSF protein kinase 3 [10] = molecular target: T2, SRSF protein kinase 3 (Homo sapiens, UniProt Q9UPE1); assay: Inhibition of human MSSK1 using GRSRSRSRSR as substrate at 1uM in presence of [gamma-33P]-ATP
SRSF protein kinase 3 [11] = molecular target: T2, SRSF protein kinase 3; assay: Inhibition of human MSSK1 GRSRSRSRSR as substrate in presence of [gamma-33P]-ATP
[12] = Protein binding in mouse brain; format: ADME, tissue-based; settings: read-out: PB (converted)
[13] = molecular target: T1, Leucine-rich repeat serine/threonine-protein kinase 2; assay: Inhibition of LRRK2 (unknown origin) by HTRF assay
[14] = Half life in Swiss albino mouse at 1 mg/kg, iv or 10 mg/kg, po; format: ADME, organism-based; settings: in vivo
Mus musculus [15] = assay: Volume of distribution at steady state in Swiss albino mouse at 1 mg/kg, iv or 10 mg/kg, po; format: ADME, organism-based; settings: in vivo

T1 sequence (Q5S007 whole entry): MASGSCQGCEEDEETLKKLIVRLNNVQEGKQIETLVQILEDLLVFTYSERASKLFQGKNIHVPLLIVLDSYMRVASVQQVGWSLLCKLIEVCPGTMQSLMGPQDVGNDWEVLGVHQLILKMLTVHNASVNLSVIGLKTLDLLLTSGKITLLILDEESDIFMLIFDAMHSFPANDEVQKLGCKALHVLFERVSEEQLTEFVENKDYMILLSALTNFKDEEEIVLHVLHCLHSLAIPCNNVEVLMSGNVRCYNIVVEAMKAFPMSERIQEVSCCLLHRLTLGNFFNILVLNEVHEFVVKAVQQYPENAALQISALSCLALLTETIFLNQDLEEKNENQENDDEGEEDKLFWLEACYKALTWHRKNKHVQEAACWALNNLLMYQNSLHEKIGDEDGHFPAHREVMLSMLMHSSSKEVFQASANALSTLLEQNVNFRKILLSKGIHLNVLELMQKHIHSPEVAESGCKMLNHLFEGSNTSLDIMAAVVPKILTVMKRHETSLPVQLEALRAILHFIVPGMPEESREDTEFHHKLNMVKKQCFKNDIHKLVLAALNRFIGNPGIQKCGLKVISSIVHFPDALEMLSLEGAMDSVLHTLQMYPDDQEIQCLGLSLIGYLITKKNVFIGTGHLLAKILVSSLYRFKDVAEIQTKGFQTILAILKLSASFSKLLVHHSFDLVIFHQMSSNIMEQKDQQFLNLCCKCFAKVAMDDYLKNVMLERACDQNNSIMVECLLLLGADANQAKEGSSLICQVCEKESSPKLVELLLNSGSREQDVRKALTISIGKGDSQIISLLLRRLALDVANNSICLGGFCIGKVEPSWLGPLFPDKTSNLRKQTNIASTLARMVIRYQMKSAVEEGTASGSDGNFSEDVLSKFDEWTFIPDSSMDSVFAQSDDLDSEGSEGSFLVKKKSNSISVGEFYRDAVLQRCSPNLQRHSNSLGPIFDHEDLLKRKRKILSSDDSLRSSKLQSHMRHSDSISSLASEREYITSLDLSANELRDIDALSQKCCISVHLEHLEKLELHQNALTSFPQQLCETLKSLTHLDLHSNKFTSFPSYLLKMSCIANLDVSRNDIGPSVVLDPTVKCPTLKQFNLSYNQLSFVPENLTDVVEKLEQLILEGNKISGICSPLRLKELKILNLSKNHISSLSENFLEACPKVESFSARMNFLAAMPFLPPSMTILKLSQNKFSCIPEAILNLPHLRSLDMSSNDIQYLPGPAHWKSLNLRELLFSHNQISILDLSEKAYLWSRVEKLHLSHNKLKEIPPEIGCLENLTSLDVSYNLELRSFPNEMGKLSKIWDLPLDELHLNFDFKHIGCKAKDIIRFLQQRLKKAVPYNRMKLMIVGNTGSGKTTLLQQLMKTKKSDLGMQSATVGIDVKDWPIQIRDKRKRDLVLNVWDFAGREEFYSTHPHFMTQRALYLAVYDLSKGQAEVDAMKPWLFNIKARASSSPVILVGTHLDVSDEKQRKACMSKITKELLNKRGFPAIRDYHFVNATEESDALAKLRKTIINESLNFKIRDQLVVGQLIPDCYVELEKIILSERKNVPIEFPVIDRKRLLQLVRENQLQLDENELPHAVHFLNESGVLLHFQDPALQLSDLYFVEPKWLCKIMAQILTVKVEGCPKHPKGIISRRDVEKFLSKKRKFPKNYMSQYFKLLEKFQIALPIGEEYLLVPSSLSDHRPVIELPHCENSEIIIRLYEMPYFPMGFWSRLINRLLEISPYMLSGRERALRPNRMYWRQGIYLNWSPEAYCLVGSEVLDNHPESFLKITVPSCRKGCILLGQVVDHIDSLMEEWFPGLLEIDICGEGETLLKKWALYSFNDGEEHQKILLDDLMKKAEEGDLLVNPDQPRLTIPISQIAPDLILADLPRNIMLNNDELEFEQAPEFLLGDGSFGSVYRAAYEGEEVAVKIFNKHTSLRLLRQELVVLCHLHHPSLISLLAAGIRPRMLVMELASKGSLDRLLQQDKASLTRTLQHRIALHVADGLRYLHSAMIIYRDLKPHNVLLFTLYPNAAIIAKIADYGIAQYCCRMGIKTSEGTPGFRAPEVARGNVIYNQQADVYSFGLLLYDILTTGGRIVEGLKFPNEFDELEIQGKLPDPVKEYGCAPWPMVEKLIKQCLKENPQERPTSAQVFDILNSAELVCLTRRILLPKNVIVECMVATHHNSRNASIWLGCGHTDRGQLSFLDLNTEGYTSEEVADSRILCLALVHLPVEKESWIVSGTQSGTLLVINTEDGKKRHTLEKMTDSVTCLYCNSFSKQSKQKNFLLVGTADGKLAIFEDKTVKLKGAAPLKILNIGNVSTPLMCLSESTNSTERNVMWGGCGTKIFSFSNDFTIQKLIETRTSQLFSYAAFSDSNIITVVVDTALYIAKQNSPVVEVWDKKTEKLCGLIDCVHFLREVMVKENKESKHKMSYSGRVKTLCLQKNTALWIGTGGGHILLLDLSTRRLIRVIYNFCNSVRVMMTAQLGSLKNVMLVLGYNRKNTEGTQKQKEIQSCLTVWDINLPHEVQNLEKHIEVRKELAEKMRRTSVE
T2 sequence (Q9UPE1 whole entry): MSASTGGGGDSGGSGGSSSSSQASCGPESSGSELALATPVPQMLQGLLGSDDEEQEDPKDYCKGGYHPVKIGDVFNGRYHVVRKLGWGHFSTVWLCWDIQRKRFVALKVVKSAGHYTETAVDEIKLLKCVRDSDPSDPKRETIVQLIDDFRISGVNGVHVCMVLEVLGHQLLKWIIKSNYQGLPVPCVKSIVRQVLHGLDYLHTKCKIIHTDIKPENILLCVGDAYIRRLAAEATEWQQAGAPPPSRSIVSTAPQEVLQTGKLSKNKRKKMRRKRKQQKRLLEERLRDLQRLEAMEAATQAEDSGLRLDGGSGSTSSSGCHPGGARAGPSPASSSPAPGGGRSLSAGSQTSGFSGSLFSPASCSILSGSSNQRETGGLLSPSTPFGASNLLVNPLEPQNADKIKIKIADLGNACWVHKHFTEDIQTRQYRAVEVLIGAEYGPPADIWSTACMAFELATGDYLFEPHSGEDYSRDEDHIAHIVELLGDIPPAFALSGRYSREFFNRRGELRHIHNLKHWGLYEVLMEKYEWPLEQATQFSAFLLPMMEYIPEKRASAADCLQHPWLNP

Row | SMILES | CLH (Liver) [mL/min/g] | half-life [1] [min] | Vd [3] [L/kg] | AUC/dose (Mus musculus [4]) [ng·h/mL/mg/kg] | bioavailability [5] [%] | solubility [7] [µM] | Papp [8] [×10⁻⁶ cm/s] | fraction unbound [12] | IC50 [13] [nM] | other results
1 | O=C(Nc1cccnc1)c1cc(Br)ccc1OCc1ccccc1F |  |  |  |  |  |  |  |  | 7.94 | 
2 | Cn1cc(-c2ccc(OCc3ccc(F)cc3)c(C(=O)Nc3cccnc3)c2)cn1 |  | 24 | 1.6 | 253 | 10 |  | > 10 |  |  | 

The next lines start with results.

Row | CLH (Liver) [mL/min/g] | half-life [1] [min] | Vd [3] [L/kg] | AUC/dose (Mus musculus [4]) [ng·h/mL/mg/kg] | bioavailability [5] [%] | solubility [7] [µM] | Papp [8] [×10⁻⁶ cm/s] | fraction unbound [12] | IC50 [13] [nM] | SMILES | other results
3 | 0.8 | 72 | 2.7 | 597 | 91.6 | 11 (≈ 4.29 µg/mL) | > 10 | 0.004 |  | O=C(Nc1cccnc1)c1cc(C(F)(F)F)ccc1OCc1ccc(F)cc1 | clearance [2]: 27.7 mL/min/kg; Kp [6]: 1.3; inhibition [9]: > 40%; inhibition (SRSF protein kinase 3 [10]): > 40%; IC50 (SRSF protein kinase 3 [11]): 158 nM
4 |  |  |  |  |  |  |  |  | 15.8 | O=C(Nc1cccnc1)c1cc(Br)ccc1OCc1cccc(F)c1 | 
5 | 2.8 |  |  |  |  | < 1 |  |  | 12.6 | O=C(Nc1cccnc1)c1cc(Br)ccc1OCc1ccccc1 | 
6 | 1.2 |  |  | 520 |  |  | > 10 | 0.003 | 10 | O=C(Nc1cccnc1)c1cc(-c2ccnc(F)c2)ccc1OCc1ccccc1 | half-life [14]: 66 min; Vdss (Mus musculus [15]): 2.3 L/kg
